Where two headings read alike, the source gives them in different places.
What was measured:
[1] = biological target: T1, Human Peroxisome Proliferator-Activated Receptor (PPAR)α (Homo sapiens, UniProt Q07869); assay: Transcription activation test for human PPARα (GAL4-hPPARαLBD luciferase reporter in CV-1 cells); assay type: cell-based; details: firefly luciferase reporter, 24 hr with test compound in serum free medium, read-out: transactivation action (EC50, nmol/l)
T1 construct: expressed in transfected cells; host or cells: CV-1 cells (CCL-70)
T1 sequence (Q07869 239-466 limits assumed): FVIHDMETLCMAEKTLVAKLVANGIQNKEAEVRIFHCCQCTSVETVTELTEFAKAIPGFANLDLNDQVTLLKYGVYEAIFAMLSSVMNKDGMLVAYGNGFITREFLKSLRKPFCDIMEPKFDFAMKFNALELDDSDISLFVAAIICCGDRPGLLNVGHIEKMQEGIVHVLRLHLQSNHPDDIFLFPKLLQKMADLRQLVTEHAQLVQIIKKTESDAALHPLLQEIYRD
From the text: Transcription Activation Test for Human Peroxisome Proliferator-Activated Receptor (PPAR)α
CV-1 cells (CCL-70, manufactured by Dainippon Pharma Co., Ltd.) cultured in Dulbecco's Modified Eagle Medium (DMEM) containing 10% fetal bovine serum (FBS) were transfected, using Lipofectamine 2000 (manufactured by Invitrogen), with pBIND vector (manufactured by Promega) a fusion that expresses protein (GAL4-hPPARαLBD, manufactured based on Diabetes 47: 1841-1847, 1998) of a DNA binding region of a yeast transcription factor (GAL4) and a human PPARα ligand binding region, and an internal standard renilla luciferase, and GAL4 responsive TK vector (manufactured by Promega) that expresses reporter firefly luciferase. 24 hr later, the medium was changed to a serum free medium containing a test compound, and the luciferase activity after 24 hr was measured.

normal rats = assay: Blood triglyceride (TG)-lowering action in normal rats; assay type: in vivo; details: 0.3 mg/kg p.o. once a day for 4 days, normal male SD rats, non-fasting, blood TG vs vehicle group; for inhibition in vivo at 0.3 mg/kg: Rattus norvegicus, po, 96 h, read-out: hypotriglyceridemic rate (%, 0.3 mg/kg, p.o.)
Experimental: 1) Blood Triglyceride (TG)-Lowering Action in Normal Rats
7 to 9-week-old male SD rats (manufactured by SEAC Yoshitomi, Ltd.) were used for the test. A test compound and a control compound (GW-9578: J. Med. Chem. 1999, 42, 3785-3788) were dissolved or suspended in 1% ethanol, 0.05% Tween80 (final concentration), and 0.5% hydroxypropylmethyl cellulose (HPMC) was added to adjust to a given concentration. The prepared solution was orally administered once a day for 4 days. After administration for 4 days, blood samples were collected from the jugular vein under non-fasting condition and blood TG was measured by an enzyme method. The lowering rate was calculated by determining the rate of a value obtained by subtracting the average blood TG of a drug administration group from the average blood TG of a vehicle administration group, to the average blood TG of the vehicle administration group.

[2] = system: high cholesterol diet-treated rat; assay: Influence on serum lipid of high cholesterol diet-treated rat; assay type: in vivo, male SD rats; details: 0.3 mg/kg p.o. once a day for 5 days, high cholesterol diet rats, non-fasting; for inhibition in vivo at 0.3 mg/kg: Rattus norvegicus, po, 120 h
Experimental: 2) Influence on Serum Lipid of High Cholesterol Diet-Treated Rat
8-week-old male SD rats (manufactured by SEAC Yoshitomi, Ltd.) were raised on a standard diet CE-2 (manufactured by Japan Clea, Inc.) added with 1% cholesterol, 2% olive oil and 0.2% cholic acid, from one week before test compound administration to the last day of the administration. A test compound and a control compound (GW-9578) were dissolved or suspended in 1% ethanol, 0.05% Tween80 (final concentration), and 0.5% hydroxypropylmethyl cellulose (HPMC) was added to adjust to a given concentration. The prepared solution was orally administered once a day for 5 days. After administration for 5 days, blood samples were collected from the jugular vein under non-fasting condition and blood lipid was measured by an enzyme method. The lowering rate was calculated by determining the rate of a value obtained by subtracting the average blood TG (or average blood TC) of a drug administration group from the average blood triglyceride (TG) (or average blood total cholesterol (TC)) of a vehicle administration group, to the average blood TG (or average blood TC) of the vehicle administration group.

[3] = blood total cholesterol vs vehicle group, read-out: lowering rate (%, 0.3 mg/kg, p.o.) TC
[4] = blood triglyceride vs vehicle group, read-out: lowering rate (%, 0.3 mg/kg, p.o.) TG

EC50 [1] [nmol/L] | Structure (SMILES) | inhibition in vivo at 0.3 mg/kg (normal rats) [%] | inhibition in vivo at 0.3 mg/kg [2, 3] [%] | inhibition in vivo at 0.3 mg/kg [2, 4] [%] | hypotriglyceridemic rate (%, 0.3 mg/kg, p.o.) (normal rats) | lowering rate (%, 0.3 mg/kg, p.o.) TC ([2]; blood total cholesterol vs vehicle group) | lowering rate (%, 0.3 mg/kg, p.o.) TG ([2]; blood triglyceride vs vehicle group)
10.4 | CC(C)(Sc1nc(CCOc2ccc(-c3ccc(F)cc3)cc2)cs1)C(=O)O [Example 34, 2-[(4-{2-[(4′-fluorobiphenyl-4-yl)oxy]ethyl}-1,3-thiazol-2-yl)thio]-2-methylpropionic acid] | 62 | 43 | 45 | – | – | –
11.2 | CC(C)(Sc1nc(CCOc2ccc(-c3ccc(F)cc3)cn2)cs1)C(=O)O [Example 100] | 61 | 35 | 38 | – | – | –
21 | CC(C)(Sc1nc(CCNc2ncc(-c3ccc(OC(F)(F)F)cc3)cn2)cs1)C(=O)O [Example 162, 2-methyl-2-({4-[2-({5-[4-(trifluoromethoxy)phenyl]pyrimidin-2-yl}amino)ethyl]-1,3-thiazol-2-yl}thio)propionic acid] | 65 | 31 | 48 | – | – | –
29.7 | CC(C)(Sc1nc(CCNc2ccc(-c3ccc(C(F)(F)F)cc3F)nn2)cs1)C(=O)O [Example 224, 2-({4-[2-({6-[2-fluoro-4-(trifluoromethyl)phenyl]pyridazin-3-yl}amino)ethyl]-1,3-thiazol-2-yl}thio)-2-methylpropionic acid] | 63 | 31 | 57 | – | – | –
16.5 | CC(C)(Sc1nc(CCNc2cnc(-c3ccc(Cl)cc3)cn2)cs1)C(=O)O [Example 226, 2-{[4-(2-{[5-(4-chlorophenyl)pyrazin-2-yl]amino}ethyl)-1,3-thiazol-2-yl]thio}-2-methylpropionic acid] | 64 | 38 | 56 | – | – | –
7 | CCCCCCCN(CCc1csc(SC(C)(C)C(=O)O)n1)c1ncc(CC)cn1 [Example 265, 2-[(4-{2-[(5-ethylpyrimidin-2-yl)(heptyl)amino]ethyl}-1,3-thiazol-2-yl)thio]-2-methylpropionic acid] | 69 | 31 | 63 | – | – | –
38.8 | CCc1cnc(N(CCc2csc(SC(C)(C)C(=O)O)n2)Cc2cnn(-c3ccccc3)c2)nc1 [Example 326, 2-{[4-(2-{(5-ethylpyrimidin-2-yl)[(1-phenyl-1H-pyrazol-4-yl)methyl]amino}ethyl)-1,3-thiazol-2-yl]thio}-2-methylpropionic acid] | 59 | 31 | 43 | – | – | –
13.6 | CCc1cnc(N(C/C=C/c2ccccc2)CCc2csc(SC(C)(C)C(=O)O)n2)nc1 [Example 346, 2-{[4-(2-{(5-ethylpyrimidin-2-yl)[(2E)-3-phenylprop-2-en-1-yl]amino}ethyl)-1,3-thiazol-2-yl]thio}-2-methylpropionic acid] | 63 | 31 | 47 | – | – | –
5.5 | CCCCCCCN(CCc1csc(SC(C)(C)C(=O)O)n1)c1ncc(N2CCOCC2)cn1 [Example 442, 2-[(4-{2-[heptyl(5-morpholin-4-ylpyrimidin-2-yl)amino]ethyl}-1,3-thiazol-2-yl)thio]-2-methylpropionic acid] | 65 | 38 | 39 | – | – | –
– | CCCCCCCN(CCc1ccc(SC(C)(C)C(=O)O)cc1)C(=O)Nc1ccc(F)cc1F [GW-9578, reference compound] | – | – | – | 50-60% | 30-50% | 30-50%
